In patent US20100099113A1, “MINIMIZED SMALL PEPTIDES WITH HIGH AFFINITY FOR FACTOR VIII AND FACTOR VIII-LIKE PROTEINS” (Technische Universitat Muenchen, priority 2006, published 2010):
Where no end group is shown, it is not given here. [ ]: non-standard residue; d: D form. Bpa = N[C@@H](Cc1ccc(C(=O)c2ccccc2)cc1)C(=O)O; 1Nal = N[C@@H](Cc1cccc2ccccc12)C(=O)O; Bta = N[C@@H](Cc1csc2ccccc12)C(=O)O; NMeY = CN[C@@H](Cc1ccc(O)cc1)C(=O)O; Phg = N[C@H](C(=O)O)c1ccccc1; Abu = CC[C@H](N)C(=O)O

Molecular target: T1, Plasma-derived (pd-) human Factor VIII (Homo sapiens, UniProt P00451)
T1 construct: from tissue; host or cells: human blood plasma (FVIII concentrate)
Test: Binding of 125I-labeled pd-FVIII to peptide-coated Toyopearl resin (micro-beads assay)
Settings: for % Binding pdFVIII: peptide immobilized on Toyopearl AF-Epoxy-650M resin, 125I-pd-FVIII, 2 hours room temperature, percent of maximal achievable binding (anti-FVIII Mab 8860-coated resin), mean ± SD of four determinations
Protocol: Peptides S1 to S84 were immobilized on the Toyopearl AF-Epoxy-650M resin (Tosoh Biosep) as described by Jungbauer et al. For immobilization, 2.5 mg of each peptide was dissolved in 0.25 mL of the immobilization buffer (0.2 M sodium bicarbonate, pH 10.3), and 0.036 g of the dry resin powder (corresponding to 0.125 mL of swollen resin) was added, followed by incubation of the mixture with gentle rotation for 48 hours. Upon incubation for 48 hours the resin was washed once with immobilization buffer, once with 1 M NaCl and then 3 times with binding buffer, and binding of ^125I-labeled pd-FVIII to the peptide-coated and control resin was tested. The coupling density of each peptide in each of the reported experiments was as mentioned in Table 1. The control 0.25 mL portion of the resin was similarly treated in parallel experiment in the absence of peptide and was subsequently used as a control (designated as Background) in ^125I-pd-FVIII binding experiments. ^125I-pd-FVIII Bound/Background ratios were calculated as the amount of ^125I-pd-FVIII, bound to an immobilized peptide, divided by that bound to uncoated control resin, prepared as described above. This ratio represents a Signal/Noise ratio for the micro-beads assay, since ^125I-pd-FVIII bound to peptide represents the signal value and ^125I-pd-FVIII bound to peptide-uncoated resin represents the background (noise) value.
Plasma-derived (pd-) human Factor VIII (FVIII) was purified from concentrate by immunoaffinity chromatography on an anti-FVIII monoclonal antibody column followed by subsequent concentration of pd-FVIII by ion-exchange chromatography using Resource Q HR5/5 column.
The resin with immobilized peptides was washed in the binding buffer (0.01 M Hepes, 0.1 M NaCl, 5 mM CaCl2, 0.01% Tween-80). Subsequently, the resin was diluted in the binding buffer as 1:7 slurry and aliquoted into Eppendorf tubes (40 μL per tube). ^125I-pd-FVIII (100000 cpm in 10 μL) was added to the tubes and the volume of the mixture was adjusted to 100 μL by adding 50 μL of the binding buffer containing 4% BSA to give a 2% final concentration of BSA. After 2 hours of incubation at room temperature on a rotator, the samples were washed 4 times in the binding. After each wash the tubes were centrifuged at 5000 rpm for 1 min in an Eppendorf microcentrifuge, supernatant was discarded, and the resin was re-suspended in the washing buffer, followed by centrifugation under the same conditions. After four washes the tubes with pellet without supernatant were counted for radioactivity. The resin without peptide was processed similarly to account for non-specific pd-FVIII binding to tubes and resin itself, and the radioactivity in this control tube was considered as a background value. Since ^125I-pd-FVIII contains the some fraction damaged during radiolabeling, binding was calculated as a percent of maximal achievable binding, determined in separate experiment with anti-FVIII Mab 8860-coated resin.
All the measurements were performed in duplicates. Each experiment was performed using two independently prepared immobilized peptide samples. The data presented in each table are the mean values of the four determinations: duplicate determination in the two assays performed with beads on which peptides were independently immobilized on the different days. The value of standard deviation of the above quadruplicate determinations (duplicate determinations in two independent experiments) were typically less than 10% of the measured values of ^125I-pd-FVIII binding to peptides.

[1] = Table 2, peptides with C-terminal cysteine linker immobilized on Toyopearl AF-Epoxy-650M resin
[2] = Table 3, hexapeptides with linker cysteine within the binding sequence

T1 sequence (P00451 20-1667 limits assumed): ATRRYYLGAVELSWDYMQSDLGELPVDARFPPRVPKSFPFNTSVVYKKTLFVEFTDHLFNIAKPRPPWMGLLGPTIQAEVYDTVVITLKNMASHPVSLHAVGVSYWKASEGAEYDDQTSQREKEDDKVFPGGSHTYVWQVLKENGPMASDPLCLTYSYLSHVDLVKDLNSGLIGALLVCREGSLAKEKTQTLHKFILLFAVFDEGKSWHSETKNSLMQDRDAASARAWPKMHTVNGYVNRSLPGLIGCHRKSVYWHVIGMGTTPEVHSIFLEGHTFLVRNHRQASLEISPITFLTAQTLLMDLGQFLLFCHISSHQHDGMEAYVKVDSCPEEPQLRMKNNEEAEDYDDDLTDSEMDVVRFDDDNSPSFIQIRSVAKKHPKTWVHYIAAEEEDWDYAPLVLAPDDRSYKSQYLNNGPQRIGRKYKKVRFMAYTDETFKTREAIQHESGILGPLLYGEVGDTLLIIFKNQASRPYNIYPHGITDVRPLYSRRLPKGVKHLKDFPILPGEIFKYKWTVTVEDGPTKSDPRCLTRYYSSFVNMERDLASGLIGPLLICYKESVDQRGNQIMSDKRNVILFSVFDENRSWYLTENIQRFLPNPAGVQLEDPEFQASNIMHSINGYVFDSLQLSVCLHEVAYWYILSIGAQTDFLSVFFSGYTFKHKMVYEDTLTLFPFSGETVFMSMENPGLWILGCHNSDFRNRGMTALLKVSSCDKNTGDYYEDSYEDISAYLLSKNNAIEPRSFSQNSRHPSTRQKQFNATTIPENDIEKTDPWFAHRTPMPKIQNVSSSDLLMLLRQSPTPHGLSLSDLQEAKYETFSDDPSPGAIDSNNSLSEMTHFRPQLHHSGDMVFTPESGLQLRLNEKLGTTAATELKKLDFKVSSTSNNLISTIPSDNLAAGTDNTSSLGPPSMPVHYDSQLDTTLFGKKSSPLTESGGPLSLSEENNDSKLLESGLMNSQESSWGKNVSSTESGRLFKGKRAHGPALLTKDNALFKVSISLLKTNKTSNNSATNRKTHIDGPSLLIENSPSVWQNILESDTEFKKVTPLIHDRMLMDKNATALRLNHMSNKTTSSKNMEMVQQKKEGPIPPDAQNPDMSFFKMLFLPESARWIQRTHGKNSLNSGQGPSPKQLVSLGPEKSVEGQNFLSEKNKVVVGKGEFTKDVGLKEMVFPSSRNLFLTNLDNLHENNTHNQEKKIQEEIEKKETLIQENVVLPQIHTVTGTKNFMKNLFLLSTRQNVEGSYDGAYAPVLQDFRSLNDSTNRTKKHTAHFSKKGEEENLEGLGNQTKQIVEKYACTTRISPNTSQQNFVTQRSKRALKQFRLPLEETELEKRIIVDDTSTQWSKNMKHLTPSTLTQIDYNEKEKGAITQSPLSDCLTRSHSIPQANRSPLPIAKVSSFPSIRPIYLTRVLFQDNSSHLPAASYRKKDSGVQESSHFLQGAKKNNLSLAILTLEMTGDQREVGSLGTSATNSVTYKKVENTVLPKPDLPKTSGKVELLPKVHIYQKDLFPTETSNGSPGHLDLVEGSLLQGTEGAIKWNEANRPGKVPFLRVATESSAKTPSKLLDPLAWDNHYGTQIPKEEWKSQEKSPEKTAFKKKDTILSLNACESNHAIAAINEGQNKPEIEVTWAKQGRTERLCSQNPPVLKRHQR
T1 sequence (P00451 1668-2351 limits assumed): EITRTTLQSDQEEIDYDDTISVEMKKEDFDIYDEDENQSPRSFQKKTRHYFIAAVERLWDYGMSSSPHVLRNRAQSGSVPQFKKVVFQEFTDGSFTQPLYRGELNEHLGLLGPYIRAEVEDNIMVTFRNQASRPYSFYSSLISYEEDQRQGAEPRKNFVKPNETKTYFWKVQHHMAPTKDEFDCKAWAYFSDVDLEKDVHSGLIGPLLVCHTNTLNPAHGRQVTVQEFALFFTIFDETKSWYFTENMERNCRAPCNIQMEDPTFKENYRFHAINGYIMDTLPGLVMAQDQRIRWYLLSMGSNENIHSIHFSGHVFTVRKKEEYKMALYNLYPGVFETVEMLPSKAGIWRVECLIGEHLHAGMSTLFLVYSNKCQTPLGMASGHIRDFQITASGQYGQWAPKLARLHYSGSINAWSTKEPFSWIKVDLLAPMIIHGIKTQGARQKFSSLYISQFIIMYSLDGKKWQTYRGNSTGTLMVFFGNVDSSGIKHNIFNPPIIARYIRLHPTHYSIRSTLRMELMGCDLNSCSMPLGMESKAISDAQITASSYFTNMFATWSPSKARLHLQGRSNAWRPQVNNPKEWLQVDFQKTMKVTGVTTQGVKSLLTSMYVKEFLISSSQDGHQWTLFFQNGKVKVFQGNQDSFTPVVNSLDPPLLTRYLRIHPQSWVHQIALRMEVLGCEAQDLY

| % Binding pdFVIII [%] | % Binding Factor VIII [1] [%] | % Binding Factor VIII [2] [%] | Substance |
| --- | --- | --- | --- |
| 48.4 ± 3.7 | – | – | (N-Me)S-W-E-Y-C [S21] |
| 7.1 ± 0.7 | – | – | (N-Me)Y-C-S-W-E-Y ([NMeY]CSWEY) [S69] |
| 48.9 ± 3.0 | 49 | – | Ac-H-S-W-E-Y-C (Ac-HSWEYC) [S31] |
| 42.6 ± 1.3 | 43 | – | Ac-S-W-E-Y-C [S30] |
| 81.6 ± 2.8 | – | 82 | Ac-Y-C-S-W-E-Y (Ac-YCSWEY) [S9] |
| 59.2 ± 4.6 | – | – | Ac-Y-C-S-W-E-Y-NH2 (Ac-YCSWEY-NH2) [S2] |
| 82.3 ± 1.4 | – | – | Ac-Y-C-T-W-D-Y (Ac-YCTWDY) [S14] |
| 58.5 ± 2.4 | – | – | Ac-Y-C-T-W-D-Y-NH2 (Ac-YCTWDY-NH2) [S4] |
| 62.2 ± 4.4 | 62 | – | Ac-Y-H-S-W-E-Y-C (Ac-YHSWEYC) [S32] |
| – | 50 | – | EYHSWEYC [reference compound] |
| 54.4 ± 4.9 | 54 | – | H-S-W-E-Y-C (HSWEYC) [S29] |
| 38.6 ± 0.4 | – | – | S-(1-Nal)-E-Bip(4,4′)-C [S62] |
| 41.4 ± 1.2 | – | – | S-(2-Nal)-E-Bip(4,4′)-C [S63] |
| 36.2 ± 1.5 | – | – | S-Bip(4,4′)-E-Bpa-C [S64] |
| 35.4 ± 6.6 | – | – | S-Bpa-E-(1-Nal)-C [S57] |
| 42.0 ± 5.3 | – | – | S-Bpa-E-(2-Nal)-C [S58] |
| 30.9 ± 2.1 | – | – | S-Bpa-E-Bip(4,4′)-C [S59] |
| 1.1 ± 3.3 | – | – | S-Bpa-E-Bpa-C [S61] |
| 33.9 ± 3.2 | – | – | S-Bpa-E-Phe(4-Cl)-C [S60] |
| 41.3 ± 1.4 | – | – | S-Bpa-E-Phg-C [S72] |
| 30.6 ± 0.4 | – | – | S-Bpa-E-Y-C [S71] |
| 39.2 ± 2.4 | – | – | S-Bta-E-Bpa-C [S65] |

| % Binding pdFVIII [%] | % Binding Factor VIII [1] [%] | % Binding Factor VIII [2] [%] | Substance |
| --- | --- | --- | --- |
| 47.7 ± 0.0 | – | – | S-Phe(3,4-Cl)-E-Bpa-C [S67] |
| 40.0 ± 2.5 | – | – | S-Phe(4-Cl)-E--Bpa-C [S66] |
| 40.0 ± 2.8 | – | – | S-W-E-Bpa-C [S73] |
| 14.4 ± 0.4 | – | – | Y-C-(N-Me)S-W-E-Y [S24] |
| 72.0 ± 15.5 | – | 72 | Y-C-A-W-D-Y (YCAWDY) [S16] |
| 72.1 ± 7.2 | – | – | Y-C-A-W-E-Y (YCAWEY) [S81] |
| 72.2 ± 1.7 | – | – | Y-C-S-(N-Me)W-E-Y [S70] |
| 45.2 ± 2.5 | – | – | Y-C-S-W-(N-Me)E-Y [S25] |
| 79.9 ± 4.0 | – | 80 | Y-C-S-W-D-Y (YCSWDY) [S11] |
| 48.8 ± 3.1 | – | – | Y-C-S-W-E-(N-Me)Y [S26] |
| 64.1 ± 3.2 | – | 64 | Y-C-S-W-E-Y (YCSWEY) [S7] |
| 41.8 ± 3.2 | – | – | Y-C-S-W-E-Y-NH2 (YCSWEY-NH2) [S1] |
| 74.2 ± 4.2 | – | 74 | Y-C-T-W-D-Y (YCTWDY) [S12] |
| 42.3 ± 4.3 | – | – | Y-C-T-W-D-Y-NH2 (YCTWDY-NH2) [S3] |
| 80.3 ± 1.3 | – | 80 | Y-C-T-W-E-Y (YCTWEY) [S10] |
| 72.0 ± 1.2 | – | 72 | Y-C-V-W-D-Y (YCVWDY) [S18] |
| 94.1 ± 4.70 | – | – | Y-C-V-W-E-Y (YCVWEY) [S82] |
| 47.6 ± 4.6 | – | – | Y-F-(N-Me)S-W-E-Y-C [S22] |
| 53.1 ± 0.3 | – | – | Y-F-S-W-(N-Me)E-Y-C [S23] |
| 34.4 ± 3.2 | – | – | Y-H-S-Phe(3,4-Cl)-E-Y-C [S77] |
| 26.6 ± 1.3 | – | – | Y-H-V-W-E-Y-C (YHVWEYC) [S76] |
| 47.7 ± 0.45 | – | – | Y-W-E-Y-C [S79] |

| % Binding pdFVIII [%] | % Binding Factor VIII [1] [%] | % Binding Factor VIII [2] [%] | Substance |
| --- | --- | --- | --- |
| 54.3 ± 2.1 | – | – | Y-Y-S-W-E-Y-C (YYSWEYC) [S68] |
| 55.8 ± 2.3 | – | – | Y-c-S-W-E-Y [S6] |
| 57.5 ± 4.6 | – | – | Y-f-(N-Me)S-W-E-Y-C [S27] |
| 65.1 ± 2.5 | – | – | Y-f-S-W-(N-Me)E-Y-C [S28] |
| 53.6 ± 2.7 | 54 | – | Y-f-S-W-E-Y-C [S34] |
| 59.7 ± 3.8 | – | – | Y-homoC-S-W-E-Y [S5] |
| 35.3 ± 3.0 | – | – | YCS[1Nal]EY [S80] |
| 49.4 ± 2.2 | – | – | YCS[Bpa]EY [S15] |
| 53.4 ± 5.3 | 53 | – | YF[Abu]WEFC [S33] |
| 34.9 ± 0.4 | – | – | YHSWE[Phg]C [S74] |
| 39.1 ± 1.2 | – | – | YHS[Bpa]EYC [S37] |
| 28.1 ± 0.3 | – | – | YHS[Bpa]E[Phg]C [S75] |
| 6.0 ± 0.8 | – | – | YHS[Bta]EYC [S78] |
| 46.4 ± 0.8 | – | – | YH[Abu]WDYC [S39] |
| 37.1 ± 1.0 | – | – | c-y-e-w-s [S35] |
| 75.1 ± 0.6 | – | 75 | y-d-w-a-c-y [S17] |
| 53.8 ± 0.5 | – | – | y-d-w-t-c-y [S13] |
| 73.4 ± 5.6 | – | 73 | y-d-w-v-c-y [S19] |
| 53.6 ± 2.5 | – | – | y-e-w-a-c-y [S83] |
| 69.4 ± 6.6 | – | 69 | y-e-w-s-c-y [S8] |
| 77.0 ± 4.2 | – | – | y-e-w-v-c-y [S84] |
